{"source": "patent US7879795B2", "about": "“Enhancement of tigecycline potency using efflux pump inhibitors” (Mpex Pharmaceuticals, Inc., priority 2004, dated 2011)", "key": {"[1]": {"tested_on": "P. aeruginosa, PAM1723, overexpressing the MexAB-OprM efflux pump", "assay": "Levofloxacin potentiation checkerboard assay (broth microdilution)", "assay_type": "cell-based", "protocol": "Stock solution was stored at −80° C.\nThe checkerboard assay was performed in microtiter plates. […] EPIs were diluted in the y axis, each row containing an equal concentration of an EPI. The result of these manipulations was that each well of the microtiter plate contains a unique combination of concentrations of the two agents. The assay was performed in MHB with a final bacterial inoculum of 5×10^5 CFU/ml (from an early-log phase culture). Microtiter plates were incubated during 20 h at 35° C. and were read using a microtiterplate reader (Molecular Devices) at 650 nm as well as visual observation using a microtiter plate-reading mirror."}, "[2]": {"assay": "Rat serum pharmacokinetics after IV bolus administration", "assay_type": "in vivo", "conditions": "in words", "protocol": "Rat serum pharmacokinetics of compounds 1, 2, 3 and 4 was evaluated after IV bolus administration (FIG. 11). FIG. 11 depicts the serum concentrations as a function of time."}, "[3]": {"assay": "Tissue levels in rat six-hour after 8.4 mg/kg IV bolus", "assay_type": "in vivo", "conditions": "rat kidney, liver and lung; 8.4 mg/kg IV bolus; in words", "protocol": "Tissue levels of compounds 1, 2, 3 and 4 were evaluated in kidney, liver and lung six-hour after 8.4 mg/kg IV bolus administration. FIG. 13 depicts the levels as a function of time.\nCompound 67, which is the expected metabolite of proteolytic intracellular degradation of compound 3, was detected in rat tissues after IV infusion, confirming the tissue-specific degradation of compound 3 (Tables 9A, B)."}, "[4]": {"assay": "In vitro stability in rat serum and tissue homogenates (LC/MS/MS)", "assay_type": "in vitro ADME", "protocol": "To test the stability of the compounds in vitro, samples were prepared and analyzed by LC/MS/MS according to the following procedure.\nHomogenization: A chunk of fresh tissue was weighed and mixed with saline at 1:1 ratio (w/v) in a 12×75 mm polypropylene round bottom tube. The mixture was homogenized with a Polytron homogenizer (on ice, 3×10 seconds with 10 second intervals at the setting of 7).\nIncubation and TCA-precipitation: An appropriate amount of a tissue homogenate was pre-warmed at 37° C. for 2 minutes in an Eppendorf tube. The compound to be tested was added to the tube to a final concentration of 2 μg/ml, mixed, and a 60 μl aliquot was immediately taken (as 0 hour sample) and mixed with 120 μl of 4% TCA (trichloroacetic acid) in an Eppendorf tube. The temperature of the tube containing the rest of the tissue sample was returned to 37° C. for incubation. Later, samples were taken as scheduled and mixed with TCA as described above. Plasma and lavage samples were directly incubated with the compounds without addition of saline and homogenization.\nLC/MS/MS sample vial preparation: TCA-precipitated sample tubes were vortexed for 30 seconds, centrifuged in a microfuge at top speed (13.2 k rpm) for 5 minutes. The supernatant was collected. The pH was neutralized to about 3.5 with ammonium acetate buffer. The sample (45 μl) was transferred to a glass LC/MS/MS vial (Kimble, 11 mm, 1.5 ml) and 5 μl of an internal standard was added to a final concentration of 500 ng/ml. LC/MS/MS analysis was performed in Chemistry Department of San Diego State University.\nLC/MS/MS protocol: Thermo-Finnigan TSQ Quantum triple sector mass spectrometer with electrospray (ESI) ionization was used to analyze the samples. The operation conditions were: Mobile phase of pH 3.00 water/formic acid: acetonitrile-methanol (45%:5%:50% by volume); Thermo-Keystone Betabasic C-18 column (2.1 mm×50 mm) operated at 0.100 mL/min.\nMany proteases responsible for degrading EPI compounds are located in […]. Lysozymes typically have an acidic pH (about 4.8-5), whereas the pH in tissue homogenates that were prepared was higher (kidney, pH 6.8; liver, pH 6.6; and lung, pH 7.5). To test the effect of tissue homogenates closer to physiological conditions, the pH was lowered to about 6 by adding acetic acid to the tissue homogenates and compound stability was tested. FIG. 2 depicts the stability of compounds 1 and 3 at different pH. […] The pH-dependent degradation of compound 3 was especially evident in kidney homogenates.\nFIG. 4 is a bar graph depicting the stability of compound 3 in the supernatant and pellet of kidney tissue homogenates."}}}
{"compound": "NCCC[C@H](N)C(=O)N[C@@H](CCc1ccccc1)C(=O)Nc1cnc2ccccc2c1", "note": "[Compound 2, 2-(S),5-Diamino-pentanoic acid [3-phenyl-1-(S)-(quinolin-3-ylcarbamoyl)-propyl]-amide]", "values": [{"measurement": "Antibiotic (levofloxacin) MIC in the presence of EPI", "setting": "[1]; EPI 0 μg/ml (levofloxacin alone)", "result": 2, "unit": "µg/mL"}, {"measurement": "Antibiotic (levofloxacin) MIC in the presence of EPI", "setting": "[1]; EPI 1.25 μg/ml", "result": 2, "unit": "µg/mL"}, {"measurement": "Antibiotic (levofloxacin) MIC in the presence of EPI", "setting": "[1]; EPI 5 μg/ml", "result": 2, "unit": "µg/mL"}, {"measurement": "Antibiotic (levofloxacin) MIC in the presence of EPI", "setting": "[1]; EPI 10 μg/ml", "result": 1, "unit": "µg/mL"}, {"measurement": "Antibiotic (levofloxacin) MIC in the presence of EPI", "setting": "[1]; EPI 20 μg/ml", "result": 0.125, "unit": "µg/mL"}, {"measurement": "Antibiotic (levofloxacin) MIC in the presence of EPI", "setting": "[1]; EPI 40 μg/ml", "result": 0.06, "unit": "µg/mL"}, {"measurement": "Antibiotic (levofloxacin) MIC in the presence of EPI", "setting": "[1]; EPI 80 μg/ml", "result": 0.03, "unit": "µg/mL"}, {"measurement": "Antibiotic (levofloxacin) MIC in the presence of EPI", "setting": "[1]; EPI […]", "result": 2, "unit": "µg/mL"}, {"measurement": "MPC8", "setting": "[1]; EPI concentration necessary to increase susceptibility to levofloxacin eight-fold", "result": 20, "unit": "µg/mL"}, {"measurement": "serum levels after IV bolus administration", "setting": "[2]", "result": "decreased more rapidly"}, {"measurement": "tissue levels at 6 hours after IV injection", "setting": "[3]", "result": "below the detectable level"}, {"measurement": "stability in rat serum", "setting": "[4]; in words", "result": "intermediately stable"}, {"measurement": "compound left in serum after 1.5 hr of incubation", "setting": "[4]; rat serum", "result": "about half"}, {"measurement": "compound left in serum after 4 hr", "setting": "[4]; rat serum", "result": "almost all gone"}, {"measurement": "compound left in kidney and liver after the first 40 minutes of incubation", "setting": "[4]; rat tissue homogenates", "result": "Hardly any was left"}, {"measurement": "stability in kidney and liver", "setting": "[4]; rat tissue homogenates, in words", "result": "very unstable"}]}
